Legend:
[1] = organism: Homo sapiens; test: Selectivity ratio of Ki for recombinant human airway trypsin-like protease to Ki for matriptase (unknown origin)
[2] = organism: Homo sapiens; test: Selectivity ratio of Ki for human uPA to Ki for matriptase (unknown origin)
[3] = target: T1, Suppressor of tumorigenicity 14 protein (Homo sapiens, UniProt Q9Y5Y6); test: Inhibition of matriptase (unknown origin) using MeSO2-D-Cha-Gly-Arg-pNA as substrate
T1 sequence (Q9Y5Y6 whole entry): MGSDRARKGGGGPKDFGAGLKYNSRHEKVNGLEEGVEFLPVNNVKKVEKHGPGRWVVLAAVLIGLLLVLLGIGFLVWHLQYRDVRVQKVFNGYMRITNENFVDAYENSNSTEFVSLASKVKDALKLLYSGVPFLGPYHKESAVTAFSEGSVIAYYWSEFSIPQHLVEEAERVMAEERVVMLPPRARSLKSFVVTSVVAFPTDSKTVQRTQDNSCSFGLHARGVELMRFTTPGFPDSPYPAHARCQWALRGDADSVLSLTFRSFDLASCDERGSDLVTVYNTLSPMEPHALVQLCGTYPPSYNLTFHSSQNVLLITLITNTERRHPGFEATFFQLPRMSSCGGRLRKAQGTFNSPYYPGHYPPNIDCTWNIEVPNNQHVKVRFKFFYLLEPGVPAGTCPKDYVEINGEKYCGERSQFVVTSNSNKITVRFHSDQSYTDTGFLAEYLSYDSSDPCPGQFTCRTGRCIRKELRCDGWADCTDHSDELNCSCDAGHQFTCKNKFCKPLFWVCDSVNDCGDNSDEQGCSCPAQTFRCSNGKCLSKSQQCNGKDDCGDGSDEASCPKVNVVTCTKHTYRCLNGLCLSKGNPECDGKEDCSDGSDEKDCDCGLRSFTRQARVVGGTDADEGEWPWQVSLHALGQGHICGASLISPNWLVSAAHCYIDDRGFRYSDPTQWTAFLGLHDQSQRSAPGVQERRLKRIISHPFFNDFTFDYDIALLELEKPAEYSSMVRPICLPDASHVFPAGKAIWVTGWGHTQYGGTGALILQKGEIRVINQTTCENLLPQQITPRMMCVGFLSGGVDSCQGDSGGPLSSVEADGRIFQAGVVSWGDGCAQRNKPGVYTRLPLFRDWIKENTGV

[4] = tested on: HEK293; test: Selectivity ratio of Ki for matriptase-2 (unknown origin) expressed in HEK293 cells to Ki for matriptase (unknown origin); assay type: cell-based; conditions: Homo sapiens
[5] = target: Coagulation factor X (Homo sapiens, UniProt P00742); test: Inhibition of human factor 10a using CH3OCO-D-Cha-Gly-Arg-pNA as substrate
[6] = target: T2, Transmembrane protease serine 6 (Homo sapiens, UniProt Q8IU80); test: Inhibition of matriptase-2 (unknown origin) expressed in HEK293 cells using ln-Ala-Arg-a-Arg-para-nitroanilide as substrate by UV-vis spectrophotometry; assay type: cell-based
T2 sequence (Q8IU80 whole entry): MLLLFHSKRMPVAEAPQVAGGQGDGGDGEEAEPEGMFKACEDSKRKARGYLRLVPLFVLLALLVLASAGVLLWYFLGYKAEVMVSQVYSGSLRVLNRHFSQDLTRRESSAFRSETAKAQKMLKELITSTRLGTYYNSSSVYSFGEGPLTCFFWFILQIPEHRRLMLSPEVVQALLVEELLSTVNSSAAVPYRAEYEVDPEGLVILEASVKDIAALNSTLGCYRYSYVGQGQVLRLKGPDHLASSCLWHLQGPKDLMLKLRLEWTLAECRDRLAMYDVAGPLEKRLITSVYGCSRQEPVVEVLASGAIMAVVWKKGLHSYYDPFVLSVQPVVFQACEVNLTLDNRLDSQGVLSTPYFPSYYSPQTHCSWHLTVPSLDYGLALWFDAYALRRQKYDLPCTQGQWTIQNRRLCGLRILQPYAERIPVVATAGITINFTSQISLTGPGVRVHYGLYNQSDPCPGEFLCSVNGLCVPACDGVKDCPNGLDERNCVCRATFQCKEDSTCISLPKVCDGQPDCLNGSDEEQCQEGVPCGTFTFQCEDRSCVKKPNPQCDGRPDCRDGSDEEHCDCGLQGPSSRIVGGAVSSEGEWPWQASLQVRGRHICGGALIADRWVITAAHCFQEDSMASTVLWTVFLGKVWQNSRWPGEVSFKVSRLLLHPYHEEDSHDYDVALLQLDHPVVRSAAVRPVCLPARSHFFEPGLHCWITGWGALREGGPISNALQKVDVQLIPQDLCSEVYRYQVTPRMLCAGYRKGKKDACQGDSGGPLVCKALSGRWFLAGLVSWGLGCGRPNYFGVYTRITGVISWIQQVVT

[7] = target: Prothrombin (Bos taurus, UniProt P00735); test: Inhibition of bovine thrombin using MeSO2-D-Cha-Gly-Arg-pNA as substrate

Chain of Coagulation factor X (P00742 41-179 limits assumed): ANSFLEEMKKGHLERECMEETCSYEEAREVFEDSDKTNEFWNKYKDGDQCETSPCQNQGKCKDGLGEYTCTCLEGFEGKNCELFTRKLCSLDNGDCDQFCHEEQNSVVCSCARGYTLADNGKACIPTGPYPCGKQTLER
Chain of Coagulation factor X (P00742 235-488 limits assumed): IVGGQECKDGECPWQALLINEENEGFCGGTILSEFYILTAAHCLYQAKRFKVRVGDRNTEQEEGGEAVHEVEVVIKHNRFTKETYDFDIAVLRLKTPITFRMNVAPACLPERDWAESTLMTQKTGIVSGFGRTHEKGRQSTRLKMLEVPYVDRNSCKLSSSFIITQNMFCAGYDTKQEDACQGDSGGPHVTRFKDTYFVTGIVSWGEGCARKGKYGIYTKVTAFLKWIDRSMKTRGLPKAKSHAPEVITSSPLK

Ratio Ki [1]: 20 | Ratio Ki [2]: 20 | Ki [3]: 1 nM | Ki [5]: 110 nM | Ki [6]: 310 nM | Ki [7]: 30 nM
SMILES: COc1ccc(-c2cccc(S(=O)(=O)N[C@@H](Cc3cccc(C(=N)N)c3)C(=O)N3CCC(CCN)CC3)c2)c(OC)c1
Ratio Ki [4]: 20
